For data set [1] the following is noted: cited from earlier work.
The format of data set [2] is in vitro ADME, human. As for the experimental part: Standard Franz diffusion cells (15 mm i.d., o-ring design) were manufactured by Crown Glass Inc., Somerville, N.J. The cell caps were modified with ground glass joints to fit 14/20 ground glass stoppers. A Franz diffusion cell drive console F-DCD-9 was also manufactured by Crown Glass. A Vandercamp 2500 recirculating water bath was used to maintain the cells at 37° C. Split thickness human allograph tissues (0.015 in. thickness), thigh back area, was obtained from the Tissue Transplant Bank, St. Agnes Medical Center, Philadelphia, Pa. Samples were counted in a Packard Auto-Gamma Scintillation Spectrometer.
Sterile Saline (0.9% Sodium Chloride USP, Travenol, NDC 0338-0049-04 lot co56747), Albumin (Bovine, fraction v, Sigma A-4503 lot 127F-0877), N-Methyl-2-pyrrolidone (Aldrich 99+ % Cat No. 24,279-9 lot 04402TP), Neomycin Sulfate (Sigma N-1876 lot 66F-0151), absolute ethanol (Midwest Solvents Company of Illinois).
Human allograph tissue, which had been stored at -70° C., was thawed and immediately mounted in a Franz type diffusion cell. The receptor chamber was filled with normal saline containing 2% albumin and 0.05% neomycin sulfate. Each cell was maintained at 37° C. and stirred at 600 rpm. After the cells had been allowed to equilibrate for 4 to 6 hours, 200 ul of a saturated ethanolic solution of 5-chloro-8-hydroxy-7-[^125I]-iodoquinoline (approx. 70 uCi, 0.44 mg) was applied to the donor side of each cell. This was immediately followed by either 200 μl of absolute ethanol for the control cells, 200 μl of 50% (w/v 3-hydroxy-N-methylpyrrolidone in ethanol or an equimolar ethanolic solution of N-methylpyrrolidone (43.1% w/v). The cells were then capped with ground glass stoppers. At various time intervals, over an 80-100 hour period, the entire contents of the receptor chamber was removed with a 10 cc syringe and placed into a vial. The receptor chamber was then refilled with fresh solution. After the last collection these vials were placed in a well-type gamma counter and counted for I-125 activity.
At the time of dosing 200 μl of the saturated 5-chloro-8-hydroxy-7-[^125 I]-iodoquinoline solution was placed into separate vials to calculate the amount of activity (dose) applied to the skin.
In this example, 3-hydroxy-N-methyl pyrrolidone was tested for its use as a percutaneous penetration enhancer. In vitro studies were carried out using Franz type diffusion cells. The penetration enhancing properties of 3-hydroxy-N-methylpyrrolidone was compared to N-methyl pyrrolidone, a compound known to enhance the penetration of drugs through the skin.
For these in vitro studies radioiodinated 5-chloro-8-hydroxy-7-iodoquinoline was chosen as a model drug. This drug, known as Clioquinol USP, is currently marketed by Ciba (Ciba Pharmaceutical Company, 556 Morris Avenue, Summit, N.J. 07901), as a topical antibacterial/antifungal agent trade named Vioform™. […] This radiolabeled marker is conveniently used to follow the penetration of the drug through the skin.
Franz diffusion cells are designed to mimic in vivo conditions. A finite dose of drug is applied to the stratum corneum side of the skin and penetration is followed by analyzing for the drug in the receptor phase underneath. In these studies the amount of drug crossing the skin barrier is estimated by counting total radioactivity in the receptor phase.
In a preliminary study, the transdermal absorption of Clioquinol was evaluated in the presence of 3-hydroxy-N-methylpyrrolidone, N-methylpyrrolidone, and in the absence of enhancer. An ethanolic solution of [I-131]-Clioquinol was applied to 3 cells followed by either ethanol (control), 50% 3-hydroxy-N-methylpyrrolidone in ethanol or an equimolar solution of N-methylpyrrolidone. In FIG. 1, the percent penetration of 5-chloro-8-hydroxy-7-[^131 I]-iodoquinoline through human skin is illustrated. The amount of 5-chloro-8-hydroxy-7-[^131 I]-iodoquinolineactivity applied is equal to 100%.
The study was repeated using I-125 labeled Clioquinol. […]

For data set [3] the following is noted: animal and human experiments; cited from earlier work.
Data set [4] can be described thus: Metabolism of N-methylpyrrolidone, metabolite excreted in urine. The source says:
As pointed out above, a penetration enhancer is a chemical compound which, when included in a transdermal formulation, affects the skin of a human by increasing permeability of the skin to allow more of a drug to be absorbed in a shorter period of time. The penetration enhancer is normally contained in a formulation, called a transdermal composition, in combination with the appropriate drug to be delivered and other known components of the formulation. […] As mentioned herein, N-methylpyrrolidone is a known penetration enhancer. In studies leading to this invention using the prior art compound, N-methyl-2-pyrrolidone, it was discovered that a major metabolite of N-methylpyrrolidone which is excreted in the urine is 3-hydroxy-N-methyl-2-pyrrolidone. […] Further, 3-hydroxy-N-methylpyrrolidone is a "softer" xenobiotic to the body because no energy will be expended in metabolic processes after the compound's absorption into the systemic circulation. Also, in view of the apparent safety of N-methylpyrrolidone, its major metabolite, 3-hydroxy-N-methylpyrrolidone, would be expected to have an even lower toxicity.

Structures are written as SMILES.

The values below come from patent publication US4973708A, “3-hydroxy-N-methylpyrrolidone and preparation thereof” (University of Kentucky Research Foundation, priority 1988, dated 1990).

`Oc1c(I)cc(Cl)c2cccnc12` [Clioquinol, 5-chloro-8-hydroxy-7-iodoquinoline]: the “absorption through the skin” value in data set [1] (reason for choice as model drug) is reported as “absorbed very slowly through the skin”. In addition, in data set [2], the “percent penetration of I-125 labeled Clioquinol through human skin (absorbed), control” value was determined as 19.5%; the “percent penetration of [I-131]-Clioquinol through human skin (absorbed), control” value stood at 2.6%; the “time in which the same amount of Clioquinol was absorbed, absence of enhancer” value is 85 h.
With `CN1CCC(O)C1=O` (stereo not shown) [3-hydroxy-N-methylpyrrolidone, 3-hydroxy-N-methyl-2-pyrrolidone], in data set [2], the “amount of Clioquinol penetrating the skin, times greater than with N-methylpyrrolidone” value amounted to 1.3 times; the “amount of Clioquinol penetrating the skin, times higher than the control” value is 1.8 times; the “amount of I-131 Clioquinol penetrated, times greater than the control” value was determined as 3.9 times; the “amount of I-131 Clioquinol penetrated, times more than with N-methylpyrrolidone” value is given as 1.5 times. Further, in data set [2], the “effectiveness in enhancing the absorption of drugs (conclusion in words)” value is listed as “more effective than N-methylpyrrolidone”; the “percent of Clioquinol absorbed in the presence of enhancer” value was 19%; the “percent penetration of I-125 labeled Clioquinol through human skin (absorbed), with enhancer” value turned out to be 40.0%; the “percent penetration of [I-131]-Clioquinol through human skin (absorbed), with enhancer” value is 10.2%. Besides, the “relative order of enhancement of Clioquinol penetration” value in data set [2] was 3-hydroxy-N-methylpyrrolone >N-methylpyrrolone>control.
On to `CN1CCCC1=O` [N-methylpyrrolidone, N-methyl-2-pyrrolidone], for which the “irritation or sensitization potential” value in data set [3] was “very little irritation or sensitization potential”. Also, the “major metabolite excreted in the urine” value in data set [4] is given as 3-hydroxy-N-methyl-2-pyrrolidone. In data set [1] (literature), the penetration enhancement entry was “effective penetration enhancer”. Besides, in data set [2], the “percent penetration of I-125 labeled Clioquinol through human skin (absorbed), with enhancer” value was found to be 27.8%; the “percent penetration of [I-131]-Clioquinol through human skin (absorbed), with enhancer” value amounted to 6.5%; the “relative order of enhancement of Clioquinol penetration” value was “N-methylpyrrolone>control”.
